Source: article PMC8881573, “Inhibition of SRP-dependent protein secretion by the bacterial alarmone (p)ppGpp” (Nature Communications, 2022)

Key:
(Ec)FtsY-NG = target: T1, (Ec)FtsY-NG (Escherichia coli, UniProt P10121); assay: Isothermal titration calorimetry (ITC) of nucleotide binding; parameters: species or system E. coli; settings: NG domain, 25 °C, one set of sites model
T1 construct: purified NG domains of (Ec)Ffh, (Ec)FtsY and (Bs)Ffh; His6 (C); made in house; host or cells: E. coli BL21 (DE3)
Experimental: (§1) Ligands and proteins (purified NG domains of (Ec)Ffh, (Ec)FtsY and (Bs)Ffh) were diluted with a buffer containing 20 mM HEPES-Na (pH 7.5), 200 mM NaCl, 20 mM MgCl2 and 20 mM KCl. The NG domains of (Ec)Ffh, (Ec)FtsY and (Bs)Ffh were titrated in the sample-cell at a nominal concentration of 25 µM each. The nucleotides GDP, GTP, ppGpp and pppGpp (Jena Bioscience, Germany) were placed in the syringe and their concentrations were predetermined by absorbance at 252 nm to saturate the protein samples during the titrations. All the measurements were performed at 25 °C with the instrument MicroCal PEAQ-ITC (©Malvern Panalytical) with a method consisting of 13 injections (first 0.4 µL, and the rest 3 µL each) and 150 s of spacing. The raw data (see source) were processed with the MicroCal PEAQ-ITC Analysis Software (©Malvern Panalytical) using the “one set of sites” models.

(Bs)Ffh-NG = target: T2, (Bs)Ffh-NG (Bacillus subtilis, UniProt P37105); assay: as above; parameters: species or system B. subtilis; settings: NG domain, 25 °C, one set of sites model
T2 construct: purified NG domains of (Ec)Ffh, (Ec)FtsY and (Bs)Ffh; His6 (N); made in house; host or cells: E. coli Rosetta pLysS
T2 sequence (P37105 1-297 limits assumed): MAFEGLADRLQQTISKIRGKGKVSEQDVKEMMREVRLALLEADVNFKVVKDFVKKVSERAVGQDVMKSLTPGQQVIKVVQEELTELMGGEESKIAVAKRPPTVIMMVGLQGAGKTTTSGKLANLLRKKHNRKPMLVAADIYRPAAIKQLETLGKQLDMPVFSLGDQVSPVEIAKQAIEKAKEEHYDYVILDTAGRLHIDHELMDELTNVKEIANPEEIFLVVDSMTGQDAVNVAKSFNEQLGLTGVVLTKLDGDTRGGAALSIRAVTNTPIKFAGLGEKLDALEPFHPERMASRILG
Experimental: as §1

T1 sequence (P10121 197-497): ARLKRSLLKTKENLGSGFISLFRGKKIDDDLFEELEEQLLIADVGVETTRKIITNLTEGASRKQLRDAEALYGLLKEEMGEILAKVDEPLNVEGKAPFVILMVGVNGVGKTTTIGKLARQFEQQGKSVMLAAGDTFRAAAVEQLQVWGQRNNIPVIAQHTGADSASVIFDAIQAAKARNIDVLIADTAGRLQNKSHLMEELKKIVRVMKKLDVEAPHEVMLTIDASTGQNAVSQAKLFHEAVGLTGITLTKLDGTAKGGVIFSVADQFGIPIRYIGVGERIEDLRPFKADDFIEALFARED

`Nc1nc2c(ncn2[C@@H]2O[C@H](COP(=O)(O)OP(=O)(O)O)[C@@H](OP(=O)(O)OP(=O)(O)O)[C@H]2O)c(=O)[nH]1` [ppGpp] gave a Kd ((Ec)FtsY-NG) of 21.7 ± 5.4 µM and a Kd ((Bs)Ffh-NG) of 4.8 ± 1.8 µM.
